Experimental data from patent publication US10385007B2, “Monamine and monoamine derivatives as inhibitors of leukotriene A4 hydrolase” (Celtaxsys, Inc., priority 2016, dated 2019).
Read-outs that look alike come from different tables or passages of the source.

Assays:
[1] = target: T1, recombinant human LTA4 hydrolase (Homo sapiens, UniProt P09960); experiment: LTA4 hydrolase homogeneous time resolved fluorescence (HTRF) assay; assay type: biochemical
T1 sequence (P09960 1-611): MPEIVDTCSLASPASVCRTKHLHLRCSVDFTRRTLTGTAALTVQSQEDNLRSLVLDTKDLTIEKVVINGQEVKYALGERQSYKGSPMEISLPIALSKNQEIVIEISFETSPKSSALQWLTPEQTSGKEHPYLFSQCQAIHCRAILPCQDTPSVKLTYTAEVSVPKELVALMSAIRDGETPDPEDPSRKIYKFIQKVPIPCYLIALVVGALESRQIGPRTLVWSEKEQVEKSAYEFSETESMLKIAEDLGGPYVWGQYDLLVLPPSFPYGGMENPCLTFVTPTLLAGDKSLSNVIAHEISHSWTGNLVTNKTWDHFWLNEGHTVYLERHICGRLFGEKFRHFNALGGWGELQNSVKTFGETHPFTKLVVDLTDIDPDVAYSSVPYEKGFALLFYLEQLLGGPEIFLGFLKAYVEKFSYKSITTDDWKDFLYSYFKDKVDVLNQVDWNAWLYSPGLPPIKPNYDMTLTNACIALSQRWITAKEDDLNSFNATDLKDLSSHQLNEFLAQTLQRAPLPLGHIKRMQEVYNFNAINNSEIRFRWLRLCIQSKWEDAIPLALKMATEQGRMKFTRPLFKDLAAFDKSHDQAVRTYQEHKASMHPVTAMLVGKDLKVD
Protocol: Compounds of the invention were tested in the LTA4 hydrolase homogeneous time resolved fluorescence (HTRF) assay to determine their ability to inhibit the hydrolysis of LTA4 to LTB4. The assay analyzes the amount of LTB4 produced.
LTA4 HTRF assay is a two-step assay involving enzymatic conversion of LTA4 to LTB4, and subsequent quantification of LTB4, product with HTRF assay.
The enzymatic conversion of LTA4 to LTB4 was performed in 384-well plates at ambient temperature in a reaction mixture containing 50 mM HEPES (pH 7.5), 0.5% BSA (fatty acid free), 18 nM recombinant human LTA4 hydrolase, 150 nM LTA4, 1% DMSO in the absence or presence of a compound of the invention. Reaction was stopped after 10 minutes incubation by diluting the incubation mixture 10-fold in 50 mM phosphate, 0.1% casein buffer (pH 7.0).
LTB4 formed was quantified with the HTRF assay in which free LTB4 competes with LTB4-XL665 conjugate (acceptor) for anti-LTB4 monoclonal antibody labeled with Europium cryptate (donor), thereby inhibiting the fluorescence energy transfer.
The LTB4 HTRF 384-well assay was carried out by incubating LTB4 samples or standards with LTB4-XL665 conjugate (7.5 ng/well) and anti-LTB4 monoclonal antibody-Europium cryptate conjugate (0.5 ng/well) in 50 mM phosphate, 0.4 M KF and 0.1% casein, buffer (pH 7.0) for two hours at ambient temperature. Plates were read in a RubyStar plate reader (BmG Labtechnologies Inc., NC) simultaneously at 620 nm and 665 nm to obtain signal ratios of 665 nm/620 nm. Results of energy transfer were expressed as delta F (%) which equaled [(signal ratio of sample-signal ratio of negative control)/(signal ratio of negative control)]×100%. Negative controls were control samples without LTB4 or LTB4-XL665.
Sample LTB4 concentrations were calculated from the LTB4 standard curve using the 4-parameter fit equation. For determination IC50 values for a particular compound of the invention, eight serially diluted compound concentrations (at 1:3.16 dilution) were used in this assay. Controls without a compound of the invention or with a reference compound were run parallel in the same assay plate.

[2] = tested on: LTB4 production in human whole blood; experiment: Whole blood assay (LTB4 release upon calcium ionophore, ELISA), human; assay type: cell-based; details: production of LTB4 in whole blood, calcium ionophore stimulation
Protocol: Compounds of the invention were tested for their ability as inhibitors of LTA4 hydrolase in a whole blood assay using human, mouse, rat or dog whole blood in a manner similar to that described in Penning, T. D. et al., J. Med. Chem. (2000), 43(4): 721-735. In this assay, compounds were tested for their ability to inhibit LTB4 release upon stimulation with calcium ionophore. The LTB4 levels in supernatants were measured by ELISA.

[3] = target: T2, LTA4 hydrolase peptidase activity (Homo sapiens, UniProt P09960); experiment: Peptidase assay (hydrolysis of L-alanine-p-nitroanilide); assay type: biochemical; details: 29 nM enzyme, 1 mM L-alanine-p-nitroanilide, 1 hour
T2 sequence (P09960 1-611): T1 sequence (P09960 1-611)
Protocol: Inhibition of peptidase activity was measured for the compounds of the invention by using methods similar to those described in Kull, F. et al., The Journal of Biological Chemistry 1999, 274 (49): 34683-34690.
In brief, the enzyme (29 nM) was incubated with L-alanine-p-nitroanilide (1 mM) in 50 mM HEPES (pH 7.5), 100 mM KCL, 1% DMSO in the absence or presence of a compound of the invention for 1 hour at ambient temperature. Reaction was terminated by addition of acetic acid (1%). Formation of colored nitro-aniline was measured by the increase in absorbance at 405 nm in a Victor 2 plate reader (Wallac). Spontaneous hydrolysis of the substrate was corrected for by subtracting the absorbance of control incubations without enzyme.

[4] = inhibition of LTA4 to LTB4 hydrolysis, 18 nM enzyme, 150 nM LTA4, 10 minutes, read-out: Hydrolase IC50

| SMILES | IC50 [2] [nM] | IC50 [1, 4] [nM] | IC50 [3] [nM] | IC50 [1] [nM] |
| --- | --- | --- | --- | --- |
| NCCc1ccc(Oc2ccc(Cc3ccccc3)cc2)cc1 [Example 3, 4-benzylphenoxy-4-phenylethylamine] | 89 | – | – | 44 |
| NCc1ccc(Oc2ccc(Cc3ccccc3)cc2)cc1 [Example 5, 4-(4-benzylphenoxy)benzylamine] | 150 | 270 | – | – |
| CN(CCOc1ccc(Cc2ccccc2)cc1)Cc1ccccc1Oc1ccc(C(=O)O)cc1 [Example 4, [N-2-(4-benzylphenoxy)ethyl]-N-methyl-(2-aminomethylphenoxy)-4-benzoic acid] | 370 | 100 | 32 | – |
| NCCc1ccc(OCc2ccc(-c3ccccc3)cc2)cc1 [Example 2, (4-phenylphenyl-1-methoxy)-4-phenylethylamine] | 47 | – | – | 41 |
| CN(CCOc1ccc(Cc2ccccc2)cc1)Cc1ccc(C(=O)O)cc1 [Example 6, [N-2-(4-benzylphenoxy)ethyl]-N-methyl-aminomethyl-4-benzoic acid] | 310 | 21 | – | – |

Further lines, with some results ahead:

| IC50 [2] [nM] | IC50 [1, 4] [nM] | IC50 [3] [nM] | SMILES | IC50 [1] [nM] |
| --- | --- | --- | --- | --- |
| 150 | 15 | 23 | CN(CCOc1ccc(Cc2ccccc2)cc1)Cc1ccccc1Oc1cccc(C(=O)O)c1 [Example 12] | – |
| 790 | 120 | – | COC(=O)C(N)Cc1ccc(Oc2ccc(Cc3ccccc3)cc2)cc1 (stereo not shown) [Example 8, methyl 3-[4-(4-benzylphenoxy)phenyl]-2-aminopropanoate] | – |
| 910 | 260 | – | NC(CO)Cc1ccc(Oc2ccc(Cc3ccccc3)cc2)cc1 (stereo not shown) [Example 10, 3-[4-(4-benzylphenoxy)phenyl]-2-aminopropanol] | – |
| – | 300 | 180 | NCc1cccnc1NCCOc1ccc(Cc2ccccc2)cc1 [Example 11, 2-(4-benzylphenoxy)ethylamino-3-aminomethylpyridine] | – |
| 880 | 84 | – | NC(Cc1ccc(Oc2ccc(Cc3ccccc3)cc2)cc1)C(=O)O (stereo not shown) [Example 7, 3-[4-(4-benzylphenoxy)phenyl]-2-aminopropanoic acid] | – |
| 350 | 130 | – | CCOC(=O)C(N)Cc1ccc(Oc2ccc(Cc3ccccc3)cc2)cc1 (stereo not shown) [Example 9, ethyl 3-[4-(4-benzylphenoxy)phenyl]-2-aminopropanoate] | – |
| – | 300 | – | NCc1ccc(OCc2ccc(-c3ccccc3)cc2)cc1 [Example 1, 1-(4-phenylphenyl-1-methoxy)-4-aminomethylbenzene] | – |
